Source: US20130109680A1, “METHODS AND COMPOSITIONS FOR AMELIORATING THIAZIDE INDUCED […]” (University of Florida Research Foundation, Inc., priority 2007, published 2013)
“And” between values parts separate entries of the source, which are not always exact repeats. Equal entries are not always repeated. Marks after values point to notes of the source that are not given here.

Legend:
Format in all cases: in vivo, Sprague Dawley rats
[1] = test system: rats on 60% fructose diet; experiment: Insulin tolerance test (ITT); details: week 18, 0.75 U/kg insulin i.p., FIG. 4
Procedure: (§1) Male Sprague Dawley rats (150-200 g, Charles River Inc., Wilmington, Mass.) were placed on a standard natural ingredient diet (catalog #7912, Harlan, Wis.) for a five day run-in period with collection of basal blood and urine. Rats were then divided into 5 groups with similar body weight and baseline blood chemistry (n=8 each group).
At week 18, the ITT was performed on animals fasted for 16 hours by administering 0.75 U/kg recombinant human insulin (Novolin; Novo Nordisk, Princeton, N.J.) via intraperitoneal injection. Blood glucose was determined on tail blood via hand-held blood glucose monitor (OneTouch, Johnson & Johnson) at 5 points; before insulin injection, and at 15, 30, 45 and 60 minutes after insulin injection.

[2] = test system: rats on 60% fructose diet; experiment: Biochemical measurements of serum and urine in fructose-fed rats; details: for serum uric acid (change in words): FIG. 2A; for serum uric acid (change in words) / serum triglycerides (change in words): weeks 4, 14, 20; for serum triglycerides (change in words): FIG. 2D
Procedure: as §1
(§2) Group 3 (F+HCTZ): 60% fructose diet plus hydrochlorothiazide (HCTZ, Sigma-Aldrich, St. Louis, Mo.) 10 mg/kg/day dissolved in drinking water
(§3) We monitored serum K^+ and increased the concentration of KCL at week 5 (1.5% KCL), week 15 (1.75% KCL) and week 17 (2% KCL) to maintain normal k^+ level in serum through the whole study.
(§4) Group 5 (F+HCTZ+Allopurinol): 60% fructose diet plus the same dose of HCTZ and allopurinol 150 mg/L dissolved in drinking water
(§5) Rats were weighed weekly and housed separately in metabolic cages for overnight collection of urine (over 18 hrs) with free access to water and no food on weeks 4, 14 and 20. Four hour fasting serum was also collected from the tail vein within the same week of urine collection. At the end of week 20, rats were sacrificed.
Serum and urine K^+ concentrations were determined with the atomic absorption spectrophotometer (Perkin-Elmer 306). Routine chemistries (including serum glucose, cholesterol, triglycerides, blood urea nitrogen (BUN), sodium, chloride, bicarbonate (HCO3^−) and magnesium (Mg^++); serum and urine creatinine (Cr), uric acid and urine protein concentration) were measured using an autoanalyzer (VetAce, Alfa Wassermann, Inc., West Caldwell, N.J.).

[3] = test system: rats on 60% fructose diet; experiment: Serum insulin and Quantitative Insulin Sensitivity Check Index (QUICKI); details: for QUICKI / insulin sensitivity (in words): week 14, FIG. 3
Procedure: as §1
Fasting serum glucose and insulin were obtained at week 14 and used to calculate the QUICKI value. Serum insulin was determined by using the rat insulin ELISA kit (Crystal Chem, Chicago, Ill.) which can detect serum insulin in the range of 156-10,000 pg/ml and has the 3.5% intra-assay and 6.3% inter-assay precision. QUICKI is a mathematical model based on log-transformed fasting plasma glucose and insulin values by equal 1/(log [glucose]+log [insulin]). QUICKI predicts insulin sensitivity with lower values representing more insulin resistance.

[4] = test system: rats on 60% fructose diet; experiment: Measurement of urinary nitric oxide (nitrate/nitrite); details: FIG. 5
Text: as §1, §5
Urine was determined NO by using the nitrate/nitrite colorimetric assay kit (Cayman Chemical Company, MI). The kit measures NO reaction products, total nitrate and nitrite concentrations with a modified two-step Griess reaction.

[5] = test system: rats on 60% fructose diet; experiment: Tail cuff systolic blood pressure measurement in fructose-fed rats; details: for systolic blood pressure (SBP): conscious rats, mean±SD
Procedure: as §1, §2, §3, §4
Systolic blood pressure (SBP) measurement was performed in conscious rats with the use of a tail-cuff sphygmomanometer (Visitech BP2000, Visitech Systems, Apex, N.C.) at weeks 4 and 16. After three time periods of preconditioning, rats were placed in prewarmed chambers (37° C.) for 10-15 min, the pressure and pulse were measured by an automatic tail-cuff inflater and a built-in transducer. The mean of three stable BP readings was used.

## NS(=O)(=O)c1cc2c(cc1Cl)NCNS2(=O)=O [F+HCTZ, hydrochlorothiazide]
[1]
  blood glucose response to intraperitoneal insulin in ITT (in words): maintained elevated serum glucose in response to insulin
[1]; listed as hydrochlorothiazide
  blood glucose response to intraperitoneal insulin in ITT (in words): no change of blood glucose
[2]
  serum uric acid (change in words): greater hyperuricemia
  serum triglycerides (change in words): higher in the F+HCTZ group but did not reach statistical significance
[2]; listed as Hydrochlorothiazide
  serum uric acid (change in words): more hyperuricemia
[2]; FIG. 2B, weeks 14 and 20
  serum glucose (change in words): hyperglycemia
[2]; FIG. 2C
  serum cholesterol (change in words): numerical higher
[2]; listed as hydrochlorothiazide
  serum triglycerides (change in words): numerical higher
[2]; Table 1, mean±SD
  Uric acid clearance: 0.08 ± 0.03 ^& ml/min
  Urine protein/Cr: 2.53 ± 2.3
  Urine uric acid: 2.93 ± 1.0 ^& mg/day
[2]; Table 1, serum, week 20, mean±SD
  Cr: 0.46 ± 0.11 mg/dL
[2]; rat, in vivo
  BUN: 26.6 ± 14 *^, & mg/dL
  Serum K^+: 4.0 ± 0.1 *^, &, # mEq/L
  Serum Mg^++: 1.15 ± 0.1*^, & mEq/L
  serum HCO3^−: 24.7±1.1 mEq/L
  serum K^+ (in words): significantly lower
[2]; week 14 (implied by sentence), mean±SD
  serum uric acid: 2.69 ± 0.47 mg/dL
[2]; week 14, 4 h fasting serum, mean±SD
  serum glucose: 176 ± 13.3 mg/dL
[2]; week 14, mean±SD
  serum triglycerides: 492 ± 154 mg/dL
[2]; week 20, 4 h fasting serum, mean±SD
  serum glucose: 186 ± 21.9 mg/dL and 186 ± 22 mg/dL
[2]; week 20, mean±SD
  serum glucose: 186 ± 22 mg/dL
  serum triglycerides: 489 ± 178 mg/dL
  serum uric acid: 2.76 ± 0.59 mg/dL
[3]; listed as HCTZ
  QUICKI / insulin sensitivity (in words): significantly lower
[3]; listed as hydrochlorothiazide
  QUICKI / insulin sensitivity (in words): significant lower insulin sensitivity
[3]; week 14, rat insulin ELISA, mean±SD
  serum insulin concentration: 3449 ± 1200 pg/mL
[4]
  urine nitrate/nitrite excretion (in words): even lower nitrite excretion
[4]; listed as Hydrochlorothiazide
  urine nitrate/nitrite excretion (in words): more reduction of urine nitrate and nitrite
[5]; FIG. 1, weeks 4 and 16
  effect on systolic blood pressure (in words): reduced the systolic blood pressure
[5]; week 4, tail cuff
  systolic blood pressure (SBP): 129±4.6 mmHg
[5]; week 16, tail cuff
  systolic blood pressure (SBP): 136±3.7 mmHg
